Structures are written as SMILES. Some results are limits rather than exact numbers.

`CCOC(=O)C1C(=O)CC(C)(O)C(C(=O)OCC)C1c1cc(Br)c2oc(C)c(C)c2c1` (stereo not drawn) yielded a melting point of 194 to 195 °C.

`CCCCNc1cc(-c2ccccc2)nc2onc(C)c12` came in with a melting point of 126 to 127 °C.

The compound `O/N=C1/c2ccccc2OC12CCCCCC2` showed a melting point of 104 to 106 °C.

In the case of `COc1ccc(S(N)(=O)=O)cc1C(=O)NCC1CCCN1C1CC1` (stereo not drawn), the melting point amounted to 163 °C.

Consider `CC(Oc1ccc(Oc2ccc(C(F)(F)F)cc2)cc1)C(=O)N1CCCO1` (stereo not drawn), for which the melting point fell in the range of 105 to 107 °C.

In turn, `CCOC(=O)c1cccc(NC(=O)N2CCn3c(c(C(N)=O)c(Cl)c3-c3ccccc3)C2)c1` registered a melting point of 126 to 128 °C.

With `O=Cc1cc(CSc2c(Cl)cccc2Cl)ccc1O`, the melting point fell in the range of 114 to 117 °C.

As for `CCCC(=O)CN1CCC(CCN2CCN(c3cccc(C)c3C)CC2)CC1`, the melting point was 47 °C.

With `CN(C(=O)c1ccc(Cn2cnc3c(Cl)nc(Cl)nc32)cc1)C1CCCCC1`, the melting point fell in the range of 134 to 136 °C.

`CN(Cc1ccc(NC(=O)C2=Cc3cc(-c4ccc(N5CCCC5)cc4)ccc3OCC2)cc1)C1CCOCC1` displayed a melting point of 210 to 211 °C.

Compound `COCc1ccc(-c2ccc3nnn(Cc4ccc5ncccc5c4)c3n2)cc1F` yielded a melting point of 200 to 201 °C.

`COc1cc(C(=O)Nc2cc(C(=O)c3ccccc3)ccc2N2CCOCC2)cc(OC)c1OC` had a melting point of 171 to 172 °C.

On to `Nc1cccc(Oc2ccc(C(=O)c3ccc(C#Cc4ccccc4)cc3)cc2)c1`, for which the melting point was 137 to 139 °C.

On to `C#CCOc1cc(Cl)ccc1-n1c(=O)cc(C(F)(F)F)n(C)c1=O`, for which the melting point fell in the range of 147 to 148 °C.

For the compound `CC(=O)c1nn(C)c2ccccc12`, the melting point lay within 86 to 88 °C.

Regarding `c1ccc(C(OC2CCN(CCCOc3ccc(-c4nnn[nH]4)cc3)CC2)c2ccccc2)cc1`, the melting point was in the range of 167 to 171 °C.

`CSc1nnc(N(C(=O)CCl)c2c(C)cccc2C)n1C` returned a melting point of 145 to 147 °C.

With `CCCCOC(=O)[C@H](Cc1ccc(O)cc1)NC(=O)C1(NC(=O)C2(S)CCCC2)CCCC1`, the melting point was in the range of 106 to 107 °C.

`N#Cc1c(F)c(F)c(CO)c(F)c1F`: the melting point is 50 °C.

Consider `CC1(C)Oc2cc(C#N)sc2[C@@H](N2CCCCC2=O)[C@@H]1OCc1ccccc1` (relative stereo), for which the melting point was 174 to 178 °C.

Regarding `CCN1CC(C)=CC2=C1N1CN(OC)C=C1N=N2`, the melting point is 202 to 203 °C.

Turning to `COc1cc(OCCOc2ccccc2)cc2nc(-c3cc(C)nc(C)c3)[nH]c(=O)c12`, the melting point was 223 to 224 °C.

As to `CC(=O)Nc1cncc(NC(=NC#N)NC2(c3ccccc3)CCC2)c1`, the melting point lay within 207 to 208 °C.

`CCCCCCC(C(=O)O)n1cc(CC)c2cc(-c3ccccc3-c3nn[nH]n3)ccc21` (stereo not drawn) displayed a melting point of 110 to 113 °C.

`C#CCOC(=O)Oc1ccc2ccc(OC(=O)OCC#C)cc2c1` displayed a melting point of 94 to 96 °C.

In turn, `CCC(=O)c1ccc(=O)[nH]c1CC` displayed a melting point of 138 to 140 °C.

Consider `CC(C)(C)OC(=O)N[C@H]1CCN(C(=O)OCc2ccccc2)C1`, for which the melting point is 124 to 125 °C.

Consider `CCc1ccccc1OS(=O)(=O)c1ccc(N2CCN(C)C2=O)cc1`, for which the melting point lay in the range of 126 to 128 °C.

Compound `CC(C)c1cc2c(c(O)c1O)C1(C(=O)O)CCCC(C)(C)C1CC2` (stereo not drawn) came in with a melting point of 193 to 199 °C.

For the compound `N#CCc1ccc(OCCCN2CCN(C34CC5CC(CC(C5)C3)C4)CC2)cc1`, the melting point lay in the range of 136 to 138 °C.

Take `CC(C)CC1NCCNC1=O` (stereo not drawn): the melting point is 75 to 77 °C.

As to `CCOC(=O)c1cccc2nc(CC)n(Cc3ccc(-c4ccccc4-c4nnn[nH]4)cc3)c12`, the melting point was 188 to 189 °C.

In turn, `Cc1nnc(COc2ccc([N+](=O)[O-])cc2)o1` came in with a melting point of 105 to 106 °C.

Consider `Fc1ccc2c(CCN=c3sc4ccccc4s3)c[nH]c2c1`, for which the melting point worked out at 193 °C.

The compound `Cc1cc(Oc2ccc(S(C)(=O)=O)nc2)ccc1[N+](=O)[O-]` showed a melting point of 138 to 140 °C.

In turn, `COC(=O)c1cccc(S(=O)(=O)N(C)C)c1C` returned a melting point of 40 to 43 °C.

As for `C=CCn1cnc2c1c(=O)n(CCC(C)C(C)=O)c(=O)n2C` (stereo not drawn), the melting point lay within 73 to 74 °C.

On to `COC(=O)c1scc(-c2ccccc2)c1-c1ccc(S(=O)(=O)COC(C)=O)c(F)c1`, for which the melting point is 165 °C.

`CNCC1=C(n2ccccc2=O)c2cc([N+](=O)[O-])ccc2OC1(C)C` displayed a melting point of 128 °C.

`Cc1cccc2c(C(=O)O)c(O)c(-c3ccc(-c4ccccc4)cc3)nc12`: the melting point was 178 to 180 °C.

For the compound `O=C(NCCCN1CCN(c2ccc(F)cc2OCC(F)(F)F)CC1)c1csc2c(=O)cc(-c3ccccc3)oc12`, the melting point was 189 to 191 °C.

On to `O=C(Nc1c(OCCN(Cc2ccccc2)C(=O)C(F)(F)F)cccc1[N+](=O)[O-])C(F)(F)F`, for which the melting point lay within 114 to 115 °C.

The compound `O=c1[nH]c(=O)n(CCCBr)c2ccccc12` yielded a melting point of 159 to 170 °C.

As for `c1ccc2c(c1)Nc1ccccc1-n1ccnc1-2`, the melting point is 215 to 217 °C.

`O=c1nc(-c2ccc(C(F)(F)F)cc2)sc2ccccc12` had a melting point of 122 to 123 °C.

The compound `N#Cc1cc(N)ccc1N1CCCCC1` showed a melting point of 148 to 149 °C.

The compound `COC(=O)C(NC(=O)C1CCCS1)C(C)C` (stereo not drawn) gave a melting point of 55 to 65 °C.

With `CC(=N)Nc1nc(-c2ccccn2)nc2ccccc12`, the melting point was 172 to 173 °C.

`COc1ccc(-c2nc(Sc3cccc(OC)c3)[nH]c2-c2ccc(OC)cc2)cc1` had a melting point of 101 °C.

In turn, `CCOC(=O)C=CC(=O)c1ccc(Oc2ccccc2)cc1` came in with a melting point of 50 to 53.5 °C.

On to `COc1cc(Cc2cnc(N)nc2N)cc2c1OC(C)(C)C=C2Br`, for which the melting point is 238 to 239 °C.

In turn, `Cc1ccc(S(=O)(=O)Nc2ccc(-c3ccc(S(=O)(=O)n4ccc(C=CC(=O)NO)c4)cc3)cc2)cc1` yielded a melting point of 119 to 126 °C.

In turn, `CCCC(=O)c1ccc(NC(=S)N2CCN(c3ncnc4cc(OC)c(OC)cc34)CC2)cc1` gave a melting point of 218 to 219 °C.

With `C=C(c1ccc(N(C)C)cc1)c1ccc(N(C)C)cc1C`, the melting point is 90 to 91 °C.

The compound `CN(C(CCn1c(=O)cc(-c2ccccc2)[nH]c1=O)C(=O)NO)S(=O)(=O)c1ccc(Oc2ccccc2)cc1` (stereo not drawn) gave a melting point of 179 to 181 °C.

As for `Cc1ccc(C(=O)c2ccc(Cl)cc2)cc1`, the melting point was in the range of 129 to 130 °C.

The compound `CN1CCSc2c(C(=O)NC3CN4CCC3CC4)cc(Cl)cc21` (stereo not drawn) gave a melting point of 195 to 196 °C.

Consider `CCC(O)(c1ccccc1)c1cc(OC)c(OC)c(OC)c1` (stereo not drawn), for which the melting point was in the range of 123 to 124 °C.

On to `O=C(NC(CO)Cc1ccc(O)cc1)OCC1CCCCC1` (stereo not drawn), for which the melting point fell in the range of 121 to 126 °C.

`COC(=O)C1(CCCN2CCN(c3ccccc3)CC2)Sc2ccccc2CCC1=O` (stereo not drawn) showed a melting point of 101 to 103 °C.

On to `Cc1c(-c2ccc(O)cc2)n(Cc2ccc(OCCN3CCCC(C)C3)cc2)c2ccc(O)cc12` (stereo not drawn), for which the melting point was 121 to 123 °C.

`CC(C)CN1C(=O)COc2cc(F)c(N)cc21` registered a melting point of 176 to 178 °C.

`COc1ccc2c(c1)CCN1C[C@H]3CCCN(S(C)(=O)=O)[C@H]3C[C@@H]21` had a melting point of 165 to 166 °C.

In turn, `COc1cccc(S(=O)(=O)NC(C)(C)C)c1` displayed a melting point of 100 °C.

Compound `CC1C(=O)N(Nc2ccccc2)C1C#C[Si](C)(C)C` (stereo not drawn) came in with a melting point of 136 °C.

Compound `O=C1C(c2c[nH]c3ccccc23)=C(c2c[nH]c3ccccc23)C(=O)N1c1ccccc1` gave a melting point of more than 290 °C.

The compound `Clc1cccc(-c2nc3ccccn3c2-c2ccnc(-c3ccc(OCCN4CCCC4)cc3)c2)c1` came in with a melting point of 298 °C.

For the compound `COc1ccc(-c2[nH]nc3c2C(=O)c2c(NC(=O)CN4CCCCC4)cccc2-3)cc1`, the melting point came to 291 °C.

Regarding `CCC(C)CCOc1c(-c2ccc(S(C)(=O)=O)cc2)cnn(-c2ccc(F)c(F)c2)c1=O` (stereo not drawn), the melting point lay within 100 to 102 °C.

With `COC(=O)Nc1ccc2ccccc2c1-c1c(P(c2ccccc2)c2ccccc2)ccc2ccccc12`, the melting point was found to be 92.1 °C.

With `CC(C)c1cccc(C(C)C)c1NC(=O)CCl`, the melting point is 146 to 148 °C.

The compound `Cc1c(O)ccc2c1CCCC2=O` came in with a melting point of 195 to 197 °C.

Compound `CCOC(=O)c1c(C)cc2c(c1C)c(=O)n(-c1ccccc1Cl)c(=O)n2CC(N)=O` showed a melting point of 285 to 287 °C.

On to `CC(c1ccc2[nH]nc(S(=O)(=O)c3cccc4ccccc34)c2c1)N1CCN(C)CC1` (stereo not drawn), for which the melting point fell in the range of 183 to 185 °C.

`COc1cc(COc2nn(-c3ccccc3)cc2/C=C/C#N)ccc1OCc1nc(-c2ccco2)oc1C` had a melting point of 177 to 178 °C.

In the case of `C=CCOC(=O)C1=C2CCSC[C@@H]2[C@@H]2/C(=C\C)C(=O)N12`, the melting point was 195 to 225 °C.

Compound `O=S1(=O)c2cccc3cccc(c23)N1CCCN1CCN(c2ccccc2O)CC1` returned a melting point of 128 °C.

For `NNC(=O)NC(c1cccc(Cl)c1)c1ccnc2ccccc12` (stereo not drawn), the melting point turned out to be 187 °C.

For the compound `COc1ccc(NC(=O)NCc2ccc3c(c2)CN(C2CCC(=O)NC2=O)C3=O)cc1OC` (stereo not drawn), the melting point was 216 to 218 °C.

`CS(=O)(=O)c1ccc(-c2cnn(C3CCCCC3)c(=O)c2-c2ccc(F)cc2)cc1` gave a melting point of 169 to 171 °C.

`CC(=O)OC(c1cn2c(nc3ccccc32)s1)C1(Br)C(=O)N2C(C(=O)OCc3ccc([N+](=O)[O-])cc3)=CS[C@@H]21` (stereo partly drawn) yielded a melting point of 78 °C.

For `CC(C)(C)Oc1ccc(O)c(C(=O)O)c1`, the melting point amounted to 282 °C.

In the case of `CC(C)(C)OC(=O)Nc1ccc(Br)cc1`, the melting point lay in the range of 101 to 103 °C.

With `O=C(Cn1c(-c2ccccc2)ncc(NS(=O)(=O)c2ccccc2)c1=O)NC(Cc1ccccc1)C(=O)C(F)(F)F` (stereo not drawn), the melting point fell in the range of 92 to 94 °C.

With `O=Cc1ccc2cc[nH]c2c1`, the melting point is 126 to 128 °C.

For the compound `CC1(COCC(COCC2(C)COC2)(COCC2(C)COC2)COCC2(C)COC2)COC1`, the melting point is 108 to 110 °C.

As to `O=c1[nH]c2ccccc2c(=O)n1Cc1cccnc1`, the melting point was in the range of 241 to 243 °C.

Consider `Cc1cc(OCc2sc(-c3ccc(C(F)(F)F)cc3)nc2C)ccc1OC(C)(C)C(=O)O`, for which the melting point is 154 °C.
